Measurements reported in ChEMBL document CHEMBL1126165, “Preparation and evaluation of some hydrophilic phenylacetyl-piperazines as peripherally selective -opioid receptor agonists” (Bioorg Med Chem Lett, 1992).

What was measured:
[1] = Lipophilicity was expressed as Log D; conditions: octanol/water
[2] = tested on: Mus musculus; assay: Tested in vivo for antinociceptive activity using the mouse acetylcholine induced abdominal constriction test by intracerebroventricular (i.c.v.) administration; format: functional; conditions: Abdomen, central
[3] = Ratio of antinociceptive activity measured using mouse acetylcholine induced abdominal constriction test by s.c. administration to that done by i.c.v.; format: functional, Abdomen
[4] = tested on: Mus musculus; assay: Tested in vivo for antinociceptive activity using the mouse acetylcholine induced abdominal constriction test by subcutaneous (s.c.) administration; format: functional; conditions: Abdomen, sc

CC(=O)N1CCN(C(=O)Cc2ccc([N+](=O)[O-])cc2)C(CN2CC[C@H](O)C2)C1 (some centres not stated)
logD [1]: 0
ED50 [2]: 0.024 mg/kg
Ratio [3]: 200
ED50 [4]: 4.8 mg/kg

CC(=O)N1CCN(C(=O)Cc2cccc([N+](=O)[O-])c2)C(CN2CC[C@H](O)C2)C1 (some centres not stated)
ED50 [2]: 0.006 mg/kg
ED50 [4]: 0.74 mg/kg

COC(=O)N1CCN(C(=O)Cc2ccc(Cl)c(Cl)c2)[C@H](CN2CCCC2)C1
logD [1]: 3.1
ED50 [2]: 0.0002 mg/kg
Ratio [3]: 1.5
ED50 [4]: 0.0003 mg/kg

CC(=O)N1CCN(C(=O)Cc2cc(F)cc(F)c2)C(CN2CC[C@H](O)C2)C1 (some centres not stated)
logD [1]: 0.3
ED50 [2]: 0.006 mg/kg
Ratio [3]: 417
ED50 [4]: 2.5 mg/kg

COc1cccc(CC(=O)N2CCN(C(C)=O)CC2CN2CC[C@H](O)C2)c1 (some centres not stated)
logD [1]: 0

CC(=O)N1CCN(C(=O)Cc2ccc([S+](C)[O-])cc2)C(CN2CC[C@H](O)C2)C1 (some centres not stated)
logD [1]: < -0.5

CC(=O)N1CCN(C(=O)Cc2ccc(C(F)(F)F)cc2)C(CN2CC[C@H](O)C2)C1 (some centres not stated)
logD [1]: 1
ED50 [2]: 0.008 mg/kg
Ratio [3]: 95
ED50 [4]: 0.76 mg/kg

COc1ccc(CC(=O)N2CCN(C(C)=O)CC2CN2CC[C@H](O)C2)cc1 (some centres not stated)
logD [1]: -0.1

CC(=O)N1CCN(C(=O)Cc2ccc(S(C)(=O)=O)cc2)C(CN2CC[C@H](O)C2)C1 (some centres not stated)
logD [1]: < -0.5
ED50 [2]: 0.0008 mg/kg
Ratio [3]: 2762
ED50 [4]: 2.21 mg/kg

CC(=O)N1CCN(C(=O)Cc2ccc(Cl)c(Cl)c2)C(CN2CC[C@H](O)C2)C1 (some centres not stated)
logD [1]: 1.2
ED50 [2]: 0.007 mg/kg
Ratio [3]: 100
ED50 [4]: 0.7 mg/kg

CN(C(=O)Cc1ccc(Cl)c(Cl)c1)C(CN1CCCC1)c1cccc(OCC(=O)O)c1 (configuration not stated) [ICI-204448]
logD [1]: 0.3
ED50 [2]: 0.13 mg/kg
ED50 [4]: 4.4 mg/kg

CSc1ccc(CC(=O)N2CCN(C(C)=O)CC2CN2CC[C@H](O)C2)cc1 (some centres not stated)
logD [1]: 0.6
ED50 [2]: 0.075 mg/kg
Ratio [3]: 20
ED50 [4]: 1.52 mg/kg

CC(=O)N1CCN(C(=O)Cc2ccccc2)C(CN2CC[C@H](O)C2)C1 (some centres not stated)
logD [1]: -0.1
